Laboratory results reported in patent publication US20090170844A1, “Spiro Tetracyclic Compound” (priority 2006, published 2009).
pIC50: −log10 of the molar value.

Experiments:
[1] = target: T1, human FXa (Homo sapiens, UniProt P00742); assay: Measurement of the human FXa inhibitory action (synthetic substrate S-2222); assay type: biochemical; details: human FXa 0.019 U/ml, S-2222 0.4 mM, 37° C., pH 7.5
T1 construct: purchased Enzyme Research Laboratories, Inc
Protocol: In vitro FXa inhibitory activity may be measured according to the method of Kettner et al. (Journal of Biological Chemistry, vol. 265, pages 18289 to 18297, 1990). To be more specific, human FXa (product of Enzyme Research Laboratories, Inc., 0.019 U/ml) is mixed with the specimens (of the compound of the present invention) prepared by diluting the compound of the invention with dimethylsulfoxide (DMSO) to different concentrations and synthetic substrate S-2222 (Chromogenix AB, 0.4 mM), and the mixtures are incubated at 37° C. in Tris-hydrochloric acid buffer (pH 7.5). The FXa inhibitory activity of the specimen is calculated by measuring the absorbance at 405 nm.
It should be noted that the FXa inhibitory activity of the specimen is generally indicated as IC50.

[2] = tested on: human plasma; assay: Anticoagulant activity in vitro: intrinsic coagulation time (APTT); assay type: biochemical; details: APTT reagent, calcium chloride 25 mM
Protocol: Activated partial thromboplastin time (APTT) is measured in the presence of the test compounds of the present invention diluted at various concentrations. To be more specific, each of the test compounds diluted with DMSO at various concentrations is mixed with human plasma and APTT reagent. The mixture is incubated at 37° C. for 2 minutes; calcium chloride (25 mM) is added to the mixture; and the coagulation time is thereafter measured. It should be noted that the anticoagulant activity of the test compound is described in terms of the concentration required to double the coagulation time for the case where no test compound is added.

T1 sequence (P00742 235-488 limits assumed): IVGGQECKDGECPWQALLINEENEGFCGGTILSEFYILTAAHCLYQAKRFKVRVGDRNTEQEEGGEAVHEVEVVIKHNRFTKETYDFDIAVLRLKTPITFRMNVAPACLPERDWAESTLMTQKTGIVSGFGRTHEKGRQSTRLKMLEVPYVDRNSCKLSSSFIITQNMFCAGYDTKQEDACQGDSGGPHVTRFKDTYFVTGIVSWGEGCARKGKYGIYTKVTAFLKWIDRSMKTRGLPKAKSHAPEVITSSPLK
T1 sequence (P00742 41-179 partner limits assumed): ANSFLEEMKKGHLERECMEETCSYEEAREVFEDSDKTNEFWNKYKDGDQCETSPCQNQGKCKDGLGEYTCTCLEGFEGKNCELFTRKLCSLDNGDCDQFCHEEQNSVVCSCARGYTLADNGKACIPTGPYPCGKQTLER

SMILES	pIC50 [1]	Concentration when APTT was doubled [2]
O=C1CN(S(=O)(=O)c2ccc3cc(Cl)ccc3c2)CC23CNC(=O)N2C2(CCN(C4=NCCO4)CC2)CN13 (racemic) [Example 2, (±)-3′,5′,8′,11′-tetraaza-11′-(6-chloronaphthalen-2-ylsulfonyl)-1-(2-oxazolinyl)spiro[piperidine-4,6′-tricyclo[6.4.0.0^1,5]dodecane]-4′,9′-dione]	8.32	–
O=C1CN(S(=O)(=O)c2ccc3cc(Cl)ccc3c2)CC23CNC(=O)N2C2(CCN(c4cccnn4)CC2)CN13 (racemic) [Example 3, (±)-3′,5′,8′,11′-tetraaza-11′-(6-chloronaphthalen-2-ylsulfonyl)-1-(3-pyridazinyl)spiro[piperidine-4,6′-tricyclo[6.4.0.0^1,5]dodecane]-4′,9′-dione]	8.39	–
CN1CN2C3(CCN(c4ccncc4)CC3)CN3C(=O)CN(S(=O)(=O)c4ccc5cc(Cl)ccc5c4)CC32C1 (racemic) [Example 5, (±)-3′,5′,8′,11′-tetraaza-11′-(6-chloronaphthalen-2-ylsulfonyl)-3′-methyl-1-(4-pyridyl)spiro[piperidine-4,6′-tricyclo[6.4.0.0^1,5]dodecan]-9′-one]	8.40	–
CN1CC23CN(S(=O)(=O)c4ccc5cc(Cl)ccc5c4)CC(=O)N2CC2(CCN(C4=NCCCC4)CC2)N3C1=O (single isomer, unassigned; (-)) [Example 8, (−)-3′,5′,8′,11′-tetraaza-11′-(6-chloronaphthalen-2-ylsulfonyl)-1-(3,4,5,6-tetrahydropyridin-2-yl)-3′-methylspiro[piperidine-4,6′-tricyclo[6.4.0.0^1,5]dodecane]-4′,9′-dione]	–	0.27 µM
CN1CC23CN(S(=O)(=O)c4cc5ccc(Cl)cc5s4)CC(=O)N2CC2(CCN(C4=NCCO4)CC2)N3C1=O (single isomer, unassigned; (-)) [Example 11, (−)-3′,5′,8′,11′-tetraaza-11′-(6-chlorobenzo[b]thiophen-2-ylsulfonyl)-3′-methyl-1-(2-oxazolinyl)spiro[piperidine-4,6′-tricyclo[6.4.0.0^1,5]dodecane]-4′,9′-dione]	8.33	–
CN1CC23CN(S(=O)(=O)c4cc5ccc(Cl)cc5s4)CC(=O)N2CC2(CCN(C4=NCCCO4)CC2)N3C1=O (single isomer, unassigned; (-)) [Example 12, (−)-3′,5′,8′,11′-tetraaza-11′-(6-chlorobenzo[b]thiophen-2-ylsulfonyl)-1-(5,6-dihydro-4H-1,3-oxazin-2-yl)-3′-methylspiro[piperidine-4,6′-tricyclo[6.4.0.0^1,5]dodecane]-4′,9′-dione]	–	0.34 µM
CN1CC23CN(S(=O)(=O)c4cc5ccc(Cl)cc5s4)CC(=O)N2CC2(CCN(C4=NCCCC4)CC2)N3C1=O (single isomer, unassigned; (-)) [Example 14, (−)-3′,5′,8′,11′-tetraaza-11′-(6-chlorobenzo[b]thiophen-2-ylsulfonyl)-1-(3,4,5,6-tetrahydropyridin-2-yl)-3′-methylspiro[piperidine-4,6′-tricyclo[6.4.0.0^1,5]dodecane]-4′,9′-dione]	8.44	0.24 µM
CN1CC23CN(S(=O)(=O)c4cc5cc(Cl)ccc5[nH]4)CC(=O)N2CC2(CCN(C4=NCCO4)CC2)N3C1=O (single isomer, unassigned; (-)) [Example 17, (−)-3′,5′,8′,11′-tetraaza-11′-(5-chloro-1H-indol-2-ylsulfonyl)-3′-methyl-1-(2-oxazolinyl)spiro[piperidine-4,6′-tricyclo[6.4.0.0^1,5]dodecane]-4′,9′-dione]	9.40	–
CN1CC23CN(S(=O)(=O)c4cc5cc(Cl)ccc5[nH]4)CC(=O)N2CC2(CCN(C4=NCCCO4)CC2)N3C1=O (single isomer, unassigned; (-)) [Example 18, (−)-3′,5′,8′,11′-tetraaza-11′-(5-chloro-1H-indol-2-ylsulfonyl)-1-(5,6-dihydro-4H-1,3-oxazin-2-yl)-3′-methylspiro[piperidine-4,6′-tricyclo[6.4.0.0^1,5]dodecane]-4′,9′-dione]	8.37	0.26 µM
CN1CC23CN(S(=O)(=O)c4cc5cc(Cl)ccc5[nH]4)CC(=O)N2CC2(CCN(C4=NCCCC4)CC2)N3C1=O (single isomer, unassigned; (-)) [Example 20, (−)-3′,5′,8′,11′-tetraaza-11′-(5-chloro-1H-indol-2-ylsulfonyl)-1-(3,4,5,6-tetrahydropyridin-2-yl)-3′-methylspiro[piperidine-4,6′-tricyclo[6.4.0.0^1,5]dodecane]-4′,9′-dione]	8.52	0.24 µM
CCC(=O)N1CCC2(CC1)CN1C(=O)CN(S(=O)(=O)c3cc4cc(Cl)ccc4[nH]3)CC13CN(C)C(=O)N23 (single isomer, unassigned; (-)) [Example 22, (−)-3′,5′,8′,11′-tetraaza-11′-(5-chloro-1H-indol-2-ylsulfonyl)-3′-methyl-1-propionylspiro[piperidine-4,6′-tricyclo[6.4.0.0^1,5]dodecane]-4′,9′-dione]	8.40	–
CN1CC23CN(S(=O)(=O)c4ccc5cc(Cl)ccc5c4)CC(=O)N2CC2(CCN(C4=NCCO4)CC2)N3C1=O (single isomer, unassigned; (-)) [Example 29, (−)-3′,5′,8′,11′-tetraaza-11′-(6-chloronaphthalen-2-ylsulfonyl)-3′-methyl-1-(2-oxazolinyl)spiro[piperidine-4,6′-tricyclo[6.4.0.0^1,5]dodecane]-4′,9′-dione]	8.62	–
